Reference: the NIST ThermoML archive (doi:10.1021/acs.jced.5b00838)

Assay: excess molar enthalpy (molar enthalpy of mixing); xn = mol fraction of the nth substance listed
Conditions: 100 kPa, Liquid, isothermal titration calorimetry

CCCCCOCCC [1-propoxypentane] + CC#N
Conditions	excess molar enthalpy [kcal/mol]
298.15 K, x2 = 0.031	0.041
298.15 K, x2 = 0.0602	0.0775
298.15 K, x2 = 0.0876	0.108
298.15 K, x2 = 0.1135	0.133
298.15 K, x2 = 0.1379	0.155
298.15 K, x2 = 0.183	0.191
298.15 K, x2 = 0.2236	0.219
298.15 K, x2 = 0.2604	0.24
298.15 K, x2 = 0.2938	0.256
298.15 K, x2 = 0.3243	0.27
298.15 K, x2 = 0.3781	0.288
298.15 K, x2 = 0.424	0.298
298.15 K, x2 = 0.4635	0.304
298.15 K, x2 = 0.5061	0.307
298.15 K, x2 = 0.5424	0.306
298.15 K, x2 = 0.5738	0.304
298.15 K, x2 = 0.6011	0.301
298.15 K, x2 = 0.6296	0.296
298.15 K, x2 = 0.6542	0.29
298.15 K, x2 = 0.6758	0.284
298.15 K, x2 = 0.6979	0.276
298.15 K, x2 = 0.7171	0.269
298.15 K, x2 = 0.734	0.262
298.15 K, x2 = 0.7491	0.255
298.15 K, x2 = 0.7625	0.248
298.15 K, x2 = 0.7644	0.242
298.15 K, x2 = 0.7829	0.232
298.15 K, x2 = 0.8022	0.221
298.15 K, x2 = 0.8226	0.207
298.15 K, x2 = 0.844	0.191
298.15 K, x2 = 0.8666	0.172
298.15 K, x2 = 0.8807	0.159
298.15 K, x2 = 0.8953	0.145
298.15 K, x2 = 0.9104	0.128
298.15 K, x2 = 0.926	0.11
298.15 K, x2 = 0.9421	0.089
298.15 K, x2 = 0.9531	0.0741
298.15 K, x2 = 0.9644	0.0577
298.15 K, x2 = 0.976	0.0399
298.15 K, x2 = 0.9879	0.0207
308.15 K, x2 = 0.0305	0.0427
308.15 K, x2 = 0.0592	0.0799
308.15 K, x2 = 0.0863	0.111
308.15 K, x2 = 0.1118	0.137
308.15 K, x2 = 0.136	0.16
308.15 K, x2 = 0.1806	0.197
308.15 K, x2 = 0.2208	0.225
308.15 K, x2 = 0.2572	0.247
308.15 K, x2 = 0.2904	0.265
308.15 K, x2 = 0.3207	0.278
308.15 K, x2 = 0.3742	0.297
308.15 K, x2 = 0.4199	0.309
308.15 K, x2 = 0.4594	0.315
308.15 K, x2 = 0.502	0.319
308.15 K, x2 = 0.5383	0.319
308.15 K, x2 = 0.5697	0.317
308.15 K, x2 = 0.6022	0.312
308.15 K, x2 = 0.6301	0.307
308.15 K, x2 = 0.6543	0.301
308.15 K, x2 = 0.6756	0.295
308.15 K, x2 = 0.6944	0.288
308.15 K, x2 = 0.7137	0.281
308.15 K, x2 = 0.7173	0.276
308.15 K, x2 = 0.7308	0.273
308.15 K, x2 = 0.7382	0.267
308.15 K, x2 = 0.7459	0.266
308.15 K, x2 = 0.7595	0.259
308.15 K, x2 = 0.7603	0.256
308.15 K, x2 = 0.7838	0.242
308.15 K, x2 = 0.8089	0.226
308.15 K, x2 = 0.8355	0.206
308.15 K, x2 = 0.8524	0.192
308.15 K, x2 = 0.8699	0.176
308.15 K, x2 = 0.8882	0.157
308.15 K, x2 = 0.9072	0.136
308.15 K, x2 = 0.9271	0.112
308.15 K, x2 = 0.9409	0.0938
308.15 K, x2 = 0.955	0.0737
308.15 K, x2 = 0.9695	0.0515
308.15 K, x2 = 0.9845	0.027
